Laboratory results as given in patent US20100273726A1, “METHICILLIN-RESISTANT STAPHYLOCOCCUS AUREUS ACTIVE METABOLITES ISOLATED FROM LAURUS NOBILIS AND COMBINATIONS THEREOF” (TRITON BIOPHARMA, priority 2009, published 2010).

Tests used:
[1] = tested on: Methicillin-resistant Staphylococcus aureus; experiment: In vivo MRSA assay, thigh infection in neutropenic mice; set-up: species or system Mice (CD-1); conditions: for reduction compared to vehicle control: 48 hours; for number of MRSA cfu per gram of muscle tissue: sacrificed after 48 hours
Method: The in vivo antimicrobial activity for the isolated glycosides is represented in FIGS. 2A and 2B. Mice (CD-1) were purchased from Harlan Inc. and acclimatized up to 5 days before use. Food and water were available ad libitum throughout the study. They were rendered neutropenic by two injections of cyclophosphamide (100 mg/kg) given intraperitoneally, one and four days before infection. A volume of 50 uL suspension of Methicillin-resistant Staphylococcus aureus (1.5×10^6 live organisms) was injected intramuscularly (1M) into each of the two rear thighs. Each thigh was considered as an individual data point (total of 4 data points for each treatment). These mice were randomly distributed into the control or treatment groups (n=2/group).
Treatment with the test compound (1) was initiated via the intraperitoneal route 2 hrs after thigh inoculation. Control animals were concurrently administered saline (mock treatment) or vancomycin in the same volume as those receiving compound (1). All animals were sacrificed after 48 hours by CO2 inhalation. Immediately following sacrifice, thigh tissue was collected from the animals, weighed, and homogenized in 5.0 mL of saline. Thigh muscle homogenate was then processed for microbiological assay to determine the number of MRSA cfu per gram of muscle tissue.

MRSA = conditions: background statement; cited from earlier work
[2] = preliminary maximum tolerated dose experiment; assay type: in vivo; conditions: maximum of 20 mg/kg IP for two days
Method: The number of MRSA isolated from vancomycin treated animals was 2.2×10^7 g of tissue, a reduction of 72% compared to vehicle control. Similarly, the number of MRSA recovered after treatment with compound (1) at 3 mg/kg and 15 mg/kg were 2.6×10^7 and 1.8×10^7 respectively, which correspond to a reduction of 67% and 78% as compared to vehicle control. […] To determine the maximum tolerated dose in the preliminary experiment, a maximum of 20 mg/kg of compound (1) was giving IP for two days.

[3] = tested on: methicillin resistant Staphylococcus aureus (MRSA); experiment: in vitro antimicrobial evaluation (modified CLSI method); assay type: cell-based; conditions: IC50 from percent growth versus test concentration
Method: The in vitro antimicrobial activity for the isolated glycosides is represented in FIG. 1. A modified version of CLSI (formerly NCCLS) method was used for the in vitro evaluation of test samples. Duplicate samples were transferred to 96-well microplates after diluting with 0.9% saline. The microbial cell suspensions were to give the desired target inocula after addition to the samples. Media and solvent controls were included in each assay. The IC50 was calculated by plotting percent growth versus test concentration.

[4] = vancomycin control, dose not given

## CN[C@H](CC(C)C)C(=O)N[C@H]1C(=O)N[C@@H](CC(N)=O)C(=O)N[C@H]2C(=O)N[C@H]3C(=O)N[C@H](C(=O)N[C@H](C(=O)O)c4cc(O)cc(O)c4-c4cc3ccc4O)[C@H](O)c3ccc(c(Cl)c3)Oc3cc2cc(c3O[C@@H]2O[C@H](CO)[C@@H](O)[C@H](O)[C@H]2O[C@H]2C[C@](C)(N)[C@H](O)[C@H](C)O2)Oc2ccc(cc2Cl)[C@H]1O [vancomycin, reference compound]
[1]; [4]
  reduction compared to vehicle control: 72%
  number of MRSA cfu per gram of muscle tissue: 2.2×10^7 cfu/g
MRSA
  success rate: 35-57%

## C[C@@H]1O[C@@H](Oc2c(-c3ccc(O)cc3)oc3cc(O)cc(O)c3c2=O)[C@H](OC(=O)/C=C/c2ccc(O)cc2)[C@H](OC(=O)/C=C/c2ccc(O)cc2)[C@H]1O [compound 1, kaempferol 3-O-α-L-(2″,3″-di-E-p-coumaroyl)rhamnoside]
[1]; 3 mg/kg intraperitoneal, 2 hrs after inoculation
  number of MRSA cfu per gram of muscle tissue: 2.6×10^7 cfu/g
[1]; 3 mg/kg intraperitoneal
  reduction compared to vehicle control: 67%
[1]; 15 mg/kg intraperitoneal, 2 hrs after inoculation
  number of MRSA cfu per gram of muscle tissue: 1.8×10^7 cfu/g
[1]; 15 mg/kg intraperitoneal
  reduction compared to vehicle control: 78%
[2]
  acute toxicity / untoward effect: No untoward effect

## C[C@@H]1O[C@@H](Oc2c(-c3ccc(O)cc3)oc3cc(O)cc(O)c3c2=O)[C@H](OC(=O)/C=C\c2ccc(O)cc2)[C@H](OC(=O)/C=C\c2ccc(O)cc2)[C@H]1O [compound 4, kaempferol 3-O-α-L-(2″,3″-di-Z-p-coumaroyl)rhamnoside]
[3]
  in vitro activity (rank among the four compounds): most potent
